Patent US20240238305A1, “FORMULATIONS OF 3-((3-(4-(2-(ISOBUTYLSULFONYL)PHENOXY)-3-(TRIFLUOROMETHYL)PHENYL)-1,2,4-OXADIAZOL-5-YL)METHYL)-5,5-DIMETHYL-1-(2-MORPHOLINOETHYL)IMIDAZOLIDINE-2,4-DIONE” (Novartis AG, priority 2021, published 2024)
Values after ≈ are worked out from the molar mass of the structure shown. Values joined by “and” are separate entries in the source; they are usually repeats but may differ in a detail not shown here. Equal values may be shown once.

Experiments:
[1] = Wet ball milling: particle size and soluble fraction; assay type: physicochemical; conditions: aqueous with cosolvent or surfactant or cyclodextrin, thermodynamic from solid
Description: The effect of wet ball milling on Compound 1 particles size and solubility in Kolliphor® EL, Kolliphor® RH40, and tyloxopol s was assessed. […] Kolliphor® RH 40 appeared to be best wetting agent, with Kolliphor® EL also performing well.

[2] = Solubility of Compound 1 in different excipients; assay type: physicochemical
Description: The solubility of Compound 1 in different excipients was assessed.

[3] = Solubility of Compound 1 in aqueous buffers; assay type: physicochemical
Excerpt: 3-((3-(4-(2-(isobutylsulfonyl)phenoxy)-3-(trifluoromethyl)phenyl)-1,2,4-oxadiazol-5-yl)methyl)-5,5-dimethyl-1-(2-morpholinoethyl)imidazolidine-2,4-dione (“Compound 1”) is an LXR agonist having biological activity that makes the compound useful for treating ocular diseases such as MGD (see, e.g., Example 3). However, its physical properties make formulating Compound 1 for therapeutic use (e.g., in human subjects) difficult. Compound 1 is poorly water soluble, making it difficult to formulate compositions of Compound 1 with desired concentrations of Compound 1 for therapeutic use. […] Moreover, Compound 1 has a melting temperature of only 118° C., which makes heat sterilization of Compound 1 difficult. In spite of these challenges, formulations of Compound 1 which can be used, for example, in the treatment of ocular diseases and disorders such as dry eye disease and MGD, have been developed.

[4] = Stability of Compound 1 on sterilization (steam, gamma irradiation); assay type: physicochemical
Description: The stability of Compound 1 when sterilized by steam (autoclaving) was assessed. […] Gamma irradiation was then assessed as an alternative sterilization technique. Samples of Compound 1 were irradiated with 10-20 kGy or 20-30 kGy of gamma irradiation.

rat meibum = assay: In vivo measurement of lowered meibum melting temperature; parameters: species or system Sprague Dawley rats; conditions: rats
Description: The lowering of rat meibum melting temperature by Compound 1 was measured in naive Sprague Dawley rats. The test animals were administered either vehicle, or a suspension of 1% of Compound 1, as eye drops twice a day for fourteen days. The rat meibum was collected after administration of the compounds and analyzed by differential scanning calorimetry to measure the melting point. The lowering of meibum melting point in rats administered Compound 1 was compared to the vehicle.
Melting properties of meibum were obtained using differential scanning calorimetry thermograms, recorded on a TA Discovery Q5000 (ThermoAnalytical). Samples were sealed in standard 40 μl aluminum pans and subjected to a heat-cool-heat cycle with melting temperatures being recorded on the second heating ramp. The samples were first heated to 150° C. at 30K/min then cooled −30° C. at 30K/min. Next, the sample was heated to 75° C. with an underlying heating rate of 2K/min, a period of modulation of 60 seconds and a temperature amplitude of modulation of 1° C. Dry N2 gas, at a flow rate of 50 mL/min was used to purge the DSC equipment during the measurement. Onset of melting and peak temperatures were recorded with peak temperature quoted as the melting point.
Results from the assay are shown Table 3 and in FIG. 4. Results were analyzed using an unpaired t test with Welch's correction.

[5] = Stability of Compound 1 in different excipients, 3 months; assay type: physicochemical; conditions: for HPLC (% Remaining): initial purity 99.19%
Description: The stability of Compound 1 in different excipients was assessed.

[6] = 0.5% Kolliphor ® EL/0.5% Carbopol ® 974P, 5° C.
[7] = 0.5% Kolliphor ® EL/0.5% Carbopol ® 974P, 25° C.
[8] = 0.5% Kolliphor ® EL/0.5% Carbopol ® 974P, 40° C.
[9] = 0.5% Kolliphor ® EL/0.5% HEC, 5° C.
[10] = 0.5% Kolliphor ® EL/0.5% HEC, 25° C.
[11] = 0.5% Kolliphor ® EL/0.5% HEC, 40° C.
[12] = 0.5% Kolliphor ® RH40/0.5% Carbopol ® 974P, 5° C.
[13] = 0.5% Kolliphor ® RH40/0.5% Carbopol ® 974P, 25° C.
[14] = 0.5% Kolliphor ® RH40/0.5% Carbopol ® 974P, 40° C.
[15] = 0.5% Kolliphor ® RH40/0.5% HEC, 5° C.
[16] = 0.5% Kolliphor ® RH40/0.5% HEC, 25° C.
[17] = 0.5% Kolliphor ® RH40/0.5% HEC, 40° C.

CC(C)CS(=O)(=O)c1ccccc1Oc1ccc(-c2noc(CN3C(=O)N(CCN4CCOCC4)C(C)(C)C3=O)n2)cc1C(F)(F)F [Compound 1, 3-((3-(4-(2-(isobutylsulfonyl)phenoxy)-3-(trifluoromethyl)phenyl)-1,2,4-oxadiazol-5-yl)methyl)-5,5-dimethyl-1-(2-morpholinoethyl)imidazolidine-2,4-dione]
solubility at 24 h ([1]; 0.25% Tyloxapol @ 24 hr, 3 mm beads): 15 µg/mL (≈ 22.1 µM)
solubility at 24 h ([1]; 0.5% Tyloxapol @ 24 hr, 3 mm beads): 76 µg/mL (≈ 112 µM)
solubility at 24 h ([1]; 1% Kolliphor ® EL @ 24 hr, 3 mm beads): 270 µg/mL (≈ 397 µM)
solubility at 24 h ([1]; 1% Kolliphor ® RH-40 @ 24 hr, 3 mm beads): 344 µg/mL (≈ 506 µM)
solubility at 24 h ([1]; 2% Kolliphor ® EL @ 24 hr, 3 mm beads): 528 µg/mL (≈ 777 µM)
solubility at 24 h ([1]; 2% Kolliphor ® RH40, @ 24 hr, 1 mm beads): 650 µg/mL (≈ 956 µM)
solubility at 24 h ([1]; 2% Kolliphor ® RH-40 @ 24 hr, 3 mm beads): 669 µg/mL (≈ 984 µM)
solubility at 24 h ([1]; 4% Kolliphor ® RH40 @ 24 hr, 1 mm beads): 1200 µg/mL (≈ 1760 µM)
Physical form ([2]; 0.5% Tween ® 80 pH 7): No change, Form A
Physical form ([2]; 0.5% Tyloxapol pH 7): No change, Form A
Physical form ([2]; 5% HP-β-CD pH 5): No change, Form A
Physical form ([2]; 5% HP-β-CD pH 6): No change, Form A
Physical form ([2]; 5% HP-β-CD pH 7): No change, Form A
Physical form ([2]; 5% HP-γ-CD pH 7): No change, Form A
Physical form ([2]; 5% Kolliphor ® EL pH 5): No change, Form A
Physical form ([2]; 5% Kolliphor ® EL pH 6): No change, Form A
Physical form ([2]; 5% Kolliphor ® EL pH 7): No change, Form A
Physical form ([2]; 5% PEG400 pH 7): No change, Form A
Physical form ([2]; 5% PVP pH 7): No change, Form A
Compound 1 solubility ([2]; 5% Polyvinylpyrrolidone (PVP) pH 7, measured pH 6.97): <LOQ
Physical form ([2]; 10% transcutol pH 7): No change, Form A
Compound 1 solubility ([2]; 10% transcutol pH 7, measured pH 6.99): <LOQ
solubility ([2]; aqueous with cosolvent or surfactant or cyclodextrin, thermodynamic from solid, 0.5% Tween ® 80 pH 7, measured pH 7.1): 78 µg/mL (≈ 115 µM)
solubility ([2]; aqueous with cosolvent or surfactant or cyclodextrin, thermodynamic from solid, 0.5% Tyloxapol pH 7): 34 µg/mL (≈ 50 µM)
solubility ([2]; aqueous with cosolvent or surfactant or cyclodextrin, thermodynamic from solid, 5% HP-β-CD pH 5, measured pH 5.28): 180 µg/mL (≈ 265 µM)
solubility ([2]; aqueous with cosolvent or surfactant or cyclodextrin, thermodynamic from solid, 5% HP-β-CD pH 6, measured pH 6.13): 70 µg/mL (≈ 103 µM)
solubility ([2]; aqueous with cosolvent or surfactant or cyclodextrin, thermodynamic from solid, 5% HP-β-CD pH 7, measured pH 7.03): 50 µg/mL (≈ 73.6 µM)
solubility ([2]; aqueous with cosolvent or surfactant or cyclodextrin, thermodynamic from solid, 5% HP-γ-CD pH 7, measured pH 6.9): 225 µg/mL (≈ 331 µM)
solubility ([2]; aqueous with cosolvent or surfactant or cyclodextrin, 5% Kolliphor ® EL pH 5, measured pH 5.34): 1010 µg/mL (≈ 1490 µM)
solubility ([2]; aqueous with cosolvent or surfactant or cyclodextrin, 5% Kolliphor ® EL pH 6, measured pH 6.16): 740 µg/mL (≈ 1090 µM)
solubility ([2]; aqueous with cosolvent or surfactant or cyclodextrin, 5% Kolliphor ® EL pH 7, measured pH 7.01): 690 µg/mL (≈ 1020 µM)
solubility ([2]; aqueous with cosolvent or surfactant or cyclodextrin, 5% Kolliphor ® RH40, measured pH 6.91): 443 µg/mL (≈ 652 µM)
solubility ([2]; pH 7.1, aqueous with cosolvent or surfactant or cyclodextrin, 5% PEG400 pH 7, measured pH 7.10): 3 µg/mL (≈ 4.41 µM)
solubility ([3]; 10 mM acetate buffer, aqueous buffer, 10 mM acetate, pH 4, read-out: solubility): 25 µg/mL (≈ 36.8 µM)
solubility ([3]; 10 mM acetate buffer, aqueous buffer, 10 mM acetate, pH 5, read-out: solubility): 1 µg/mL (≈ 1.47 µM)
solubility ([3]; 10 mM phosphate buffer at pH 7): limit of quantification
HPLC Assay (% Remaining) Average ([4]; 10-20 kGy, samples 7-9): 98.23 ± 0.01%
HPLC Assay (% Remaining) Average ([4]; 20-30 kGy, samples 10-12): 98.14 ± 0.03%
degradation of Compound 1 by HPLC ([4]; gamma irradiated, 10-20 kGy or 20-30 kGy): less than 0.5%
Appearance ([4]; gamma irradiation 10-20 kGy): White powder
HPLC Assay (% Remaining) ([4]; gamma irradiation 10-20 kGy): 98.23% and 98.24% and 98.22%
XRPD (2-Theta) ([4]; gamma irradiation 10-20 kGy): Form A
Appearance ([4]; gamma irradiation 20-30 kGy): White powder
HPLC Assay (% Remaining) ([4]; gamma irradiation 20-30 kGy): 98.17% and 98.13% and 98.11%
XRPD (2-Theta) ([4]; gamma irradiation 20-30 kGy): Form A
Appearance ([4]; non-irradiated control): White powder
HPLC Assay (% Remaining) ([4]; non-irradiated control): 98.51% and 98.48% and 98.44% and 98.46% and 98.49% and 98.50%
XRPD (2-Theta) ([4]; non-irradiated control): Form A
HPLC Assay (% Remaining) Average ([4]; non-irradiated control, samples 1-6): 98.48 ± 0.03%
degradation on steam sterilization ([4]; steam (autoclaving), data not shown): Significant degradation
Mean ± SEM meibum melting temperature (rat meibum; 1% suspension eye drops twice a day for fourteen days, DSC peak temperature, in °C): 28.08 ± 0.2945
Change of Tm (rat meibum; versus vehicle, 1% suspension twice a day, fourteen days, P value <0.0001): −2.181 ± 0.3731
XRPD (2-Theta) ([5]; 0.5% Carbopol ® 974P, 5° C.): Form
HPLC (% Remaining) ([5]; 0.5% Carbopol ® 974P, 5° C.): 99.19%
XRPD (2-Theta) ([5]; 0.5% Carbopol ® 974P, 25° C.): Form
HPLC (% Remaining) ([5]; 0.5% Carbopol ® 974P, 25° C.): 99.16%
XRPD (2-Theta) ([5]; 0.5% Carbopol ® 974P, 40° C.): Form
HPLC (% Remaining) ([5]; 0.5% Carbopol ® 974P, 40° C.): 99.14%
XRPD (2-Theta) ([5]; 0.5% HEC, 5° C.): Form
HPLC (% Remaining) ([5]; 0.5% HEC, 5° C.): 99.18%
XRPD (2-Theta) ([5]; 0.5% HEC, 25° C.): Form
HPLC (% Remaining) ([5]; 0.5% HEC, 25° C.): 99.20%
XRPD (2-Theta) ([5]; 0.5% HEC, 40° C.): Form
HPLC (% Remaining) ([5]; 0.5% HEC, 40° C.): 99.17%
XRPD (2-Theta) ([5]; 0.5% Kolliphor ® EL, 5° C.): Form
HPLC (% Remaining) ([5]; 0.5% Kolliphor ® EL, 5° C.): 99.18%
XRPD (2-Theta) ([5]; 0.5% Kolliphor ® EL, 25° C.): Form
HPLC (% Remaining) ([5]; 0.5% Kolliphor ® EL, 25° C.): 99.18%
XRPD (2-Theta) ([5]; 0.5% Kolliphor ® EL, 40° C.): Form
HPLC (% Remaining) ([5]; 0.5% Kolliphor ® EL, 40° C.): 99.00%
XRPD (2-Theta) [5, 6]: Form
HPLC (% Remaining) [5, 6]: 99.18%
XRPD (2-Theta) [5, 7]: Form
HPLC (% Remaining) [5, 7]: 99.02%
XRPD (2-Theta) [5, 8]: Form
HPLC (% Remaining) [5, 8]: 97.89%
XRPD (2-Theta) [5, 9]: Form
HPLC (% Remaining) [5, 9]: 99.19%
XRPD (2-Theta) [5, 10]: Form
HPLC (% Remaining) [5, 10]: 99.02%
XRPD (2-Theta) [5, 11]: Form
HPLC (% Remaining) [5, 11]: 98.94%
XRPD (2-Theta) ([5]; 0.5% Kolliphor ® RH40, 5° C.): Form
HPLC (% Remaining) ([5]; 0.5% Kolliphor ® RH40, 5° C.): 99.18%
XRPD (2-Theta) ([5]; 0.5% Kolliphor ® RH40, 25° C.): Form
HPLC (% Remaining) ([5]; 0.5% Kolliphor ® RH40, 25° C.): 99.18%
XRPD (2-Theta) ([5]; 0.5% Kolliphor ® RH40, 40° C.): Form
HPLC (% Remaining) ([5]; 0.5% Kolliphor ® RH40, 40° C.): 99.17%
XRPD (2-Theta) [5, 12]: Form
HPLC (% Remaining) [5, 12]: 99.18%
XRPD (2-Theta) [5, 13]: Form
HPLC (% Remaining) [5, 13]: 99.17%
XRPD (2-Theta) [5, 14]: Form
HPLC (% Remaining) [5, 14]: 98.87%
XRPD (2-Theta) [5, 15]: Form
HPLC (% Remaining) [5, 15]: 99.19%
XRPD (2-Theta) [5, 16]: Form
HPLC (% Remaining) [5, 16]: 99.18%
XRPD (2-Theta) [5, 17]: Form
HPLC (% Remaining) [5, 17]: 99.18%
